Results published in PMC11001709, “Anti-toxoplasma activity and DNA-binding of copper(II) and zinc(II) coordination compounds with 5-nitroimidazole-based ligands” (Journal of Biological Inorganic Chemistry, 2023).
Values after ≈ are worked out from the molar mass of the structure shown.

Legend:
ct-DNA = experiment: Circular dichroism of ct-DNA; type: binding, calf; details: [DNA]b = 50 µM, [complex]/[DNA] 0-2, 1 h 37 °C
Description: For the UV–Vis, fluorescence and circular dichroism assays the concentration of ct-DNA was determined on a Varian Cary 100 Scan spectrophotometer from the absorption at 260 nm and the corresponding molar absorptivity of 6600 M^−1 cm^−1 (nucleobase concentration). The stock solutions of the coordination compounds and the free ligands were prepared in cacodylate/NaCl buffer (1 mM cacodylic acid and 20 mM sodium chloride) at pH 7.25. The final samples contained a DMSO concentration of 0.2%.
Circular dichroism (CD) spectra were recorded using a JASCO-815 spectropolarimeter, equipped with xenon-arc lamp of 450 W. The sample compartment was air-purged with N2 before use. For the measurements, a quartz cuvette with an optical path of 5 mm was used. A solution of 25 µM (in base pairs) of ct-DNA in cacodylate/NaCl buffer was incubated for 1 h at 37 °C with increasing amounts of coordination compounds (0–50 µM). The CD spectra were recorded at room temperature.
The interaction of small molecules with DNA can modify these CD signals depending on the type of binding. Intercalative interactions increase the intensity of the signals, as the result of an increase of the stability of the B conformation, whereas groove binding or covalent interactions tend to decrease the intensity of these signals, which are moreover displaced. The CD spectra for both ligands and their copper(II) and zinc(II) complexes were obtained at constant concentration of ct-DNA, increasing the complex concentration up to two equivalents ([complex]/[DNA] ratios of 0, 0.2, 0.4, 1, 2) with respect to the nucleobases concentration ([DNA]b = 50 µM).

pBR322 plasmid DNA = experiment: Agarose gel electrophoresis, DNA cleavage; type: biochemical; details: for %Damage / %Nicked / %Supercoiled: compound 50 (mM in the source)
Description: Electrophoresis assays were performed in 1.5% agarose gel and 1× TBE buffer using the DNA plasmid pBR322. The plasmid (15 µM base pairs) was incubated with 10 and 50 μM concentrations of the coordination compounds for 1 h at 37 °C in presence and absence of ascorbic acid (50 μM) as reducing agent and hydrogen peroxide (500 µM) as ROS generator in a final volume of 20 μL. The DNA-cleaving compound [Cu(phen)2(H2O)](NO3)2 was used as reference. The samples were loaded into the gel with 4 μL of a loading buffer (30% glycerol, 5 mM xylene cyanol), and electrophoresis was performed in 1× TBE at 100 V for 1 h in a Bio-Rad horizontal tank. Subsequently, the gel was stained with SYBR™ Safe overnight and images were acquired with a Gel Doc EZ Imager instrument (Bio-Rad).
Distinct forms of pBR322 plasmid DNA are commonly observed by gel electrophoresis due to the conformational changes that present distinct electrophoretic mobility: (1) supercoiled DNA (Form I) that migrates faster on the gel, (2) circular nicked (Form II), obtained from a one-strand scission, has a slower migration through the gel and (3) linear form (Form III) is generated when both strands are cleaved and migrates between forms I and II [54]. The interaction of the free ligands and their copper(II) and zinc(II) coordination compounds with pBR322 was investigated in presence of H2Asc (50 μM) as reducing agent and H2O2 (500 μM) as ROS generator. Solutions of 10 and 50 µM of the coordination compounds were incubated with the DNA at 37 °C for 1 h.

Entamoeba histolytica = details: cited from earlier work
[1] = test system: RH tachyzoites of Toxoplasma gondii; experiment: Viability of extracellular tachyzoites, Sytox Green exclusion test; type: cell-based; details: 1 h
Description: RH tachyzoites of Toxoplasma gondii were extracted in PBS solution at pH 7.4 from intraperitoneal fluid of infected CD1 mice on the third day of infection and centrifuged for ten minutes at 260g. Purified parasites were used within 4 h after their isolation.
The viability of the parasites was determined from staining with Sytox Green® fluorescent dye exclusion test. Purified tachyzoites (1 × 10^6) were incubated for one hour at room temperature with PBS solutions of the coordination compounds or the free ligands at concentrations of 40, 20, 10, 5, and 2.5 µM (0.1% DMSO), in a volume final of 1 mL. After the incubation time, the samples were centrifuged for 10 min at 250g, the medium was removed and 20 µL of Sytox Green® was added after 15 min of incubation for differentiate dead parasites in a Neubauer chamber. The assays were performed in triplicate. The half maximal inhibitory concentration (IC50) was calculated by Boltzmann regression analysis and expressed as mean ± standard error of three replicates. Based on the results the tachyzoites were incubated under the same conditions with the coordination compounds [Cu(onz)2Cl2] and [Cu(onz)2Br2] at their respective IC50 values, Sytox Green® was then added, and they were observed by fluorescence microscopy. Sulfadiazine was used as positive control.
Viability assays were performed against tachyzoites of Toxoplasma gondii. The RH strain was used to evaluate the effect of different concentrations (namely, 2.5, 5, 10, 20 and 40 µM) of the coordination compounds and the free 5-nitroimidazole against the tachyzoites. The evaluation were performed in PBS buffer (pH 7.4) with Sytox Green® exclusion test, which allows differentiating dead from live tachyzoites, since the intact cell membrane of alive ones is not stained.

[2] = Distribution coefficient LogD7.4, shake-flask 1-octanol/MOPS buffer; type: physicochemical; details: 1-octanol/MOPS buffer, pH 7.4, octanol/water (MOPS buffer 10^–2 M), 25 °C
Description: Solutions between 100 and 10 µM of the free ligands (cenz and onz) and the coordination compounds 3–10 were prepared in a MOPS buffer pH 7.4 as the aqueous phase and in 1-octanol as the organic phase. The absorption at 320 nm and 310 nm was determined for the aqueous and organic phase respectively by electronic spectroscopy (UV–Vis). Through a linear regression (concentration vs. absorption) the molar extinction coefficient of each compound in both phases was determined (Table 3). The lipophilicity was calculated in the 1-octanol/water system from the shake flask method using Eq. 1 [39]:1 […] where, Co is the final concentration in the organic phase and Cw is the final concentration in the aqueous phase (MOPS buffer at 10^–2 M pH 7.4). Both phases were presaturated with 50 µM solutions of the free ligands or 500 µM of each coordination compound and their UV spectrum was recorded. Both phases were combined and kept stirring for 3 h at 25 °C and in the absence of light. Subsequently, the mixture was centrifuged at 400g and the concentration in both phases was determined by UV–Vis spectroscopy using the Beer-Lambert law. The assays were performed in triplicate.
The T gondii parasite is an apicomplex organism; it requires a host cell to live, so it is important that the drugs used against the parasite have easy access to the cell. The lipophilicity of a compound is an important physicochemical property to determine its ability to permeate the biological membrane through passive diffusion; which usually is measured from the distribution coefficient logD7.4 = log(Co/Cw), in n-octanol/water. The shake-flask method was used to determine the LogD7.4 values from the molar extinction coefficients of the coordination compounds and the ligands in the two solvents (Table 3).

[3] = intraperitoneal injection; cited from earlier work
[4] = test system: Euryhaliotrema perezponcei; parameters: method as in doi:10.1016/j.poly.2013.09.030, PMID 28917638; details: in vitro and in vivo assays; cited from earlier work

## Cc1ncc([N+](=O)[O-])n1CC(O)CCl (centres unmarked) [onz, 1-(3-chloro-2-hydroxypropyl)-2-methyl-5-nitroimidazole, reference compound]
ct-DNA
  effect on CD spectrum of ct-DNA (bands at 275 and 245 nm): did not affect the DNA structure
pBR322 plasmid DNA; + H2Asc
  %Damage: 11.80%
  %Nicked: 5.60%
  %Supercoiled: 88.20%
pBR322 plasmid DNA; + H2Asc + H2O2
  %Damage: 8.80%
  %Nicked: 4.30%
  %Supercoiled: 91.20%
pBR322 plasmid DNA; + H2O2
  %Damage: 10.70%
  %Nicked: 8.90%
  %Supercoiled: 89.30%
pBR322 plasmid DNA; no additive
  %Damage: 9.80%
  %Nicked: 7.60%
  %Supercoiled: 90.20%
pBR322 plasmid DNA; with and without H2Asc / H2O2
  DNA cleavage (in words): did not provoke any significant DNA cleavage
Entamoeba histolytica
  MIC: 12.5 µM (≈ 2.75 µg/mL)
[1]; 2.5-40 µM, PBS
  activity against T. gondii: did not show activity
[2]
  logD at 3 h: 0.64

## Nc1ccc(S(=O)(=O)Nc2ncccn2)cc1 [sulfadiazine, reference compound]
[3]
  LD50: 180 mg/kg
[1]; Toxoplasma gondii, PBS pH 7.4, mean ± standard error of three replicates, read-out: IC50
  IC50: > 1.6 mM

## CCS(=O)(=O)CCn1c([N+](=O)[O-])cnc1C.CCS(=O)(=O)CCn1c([N+](=O)[O-])cnc1C.[Br][Cu][Br] [[Cu(tnz)2Br2]]
[4]
  parasite mortality percentage: 100%
